Data on six compounds can be found in US8927533B2, “Thio derivatives bearing lactams as potent HDAC inhibitors and their uses as medicaments” (SIGMA-TAU Industrie Farmaceutiche Riunite S.p.A., priority 2011, dated 2015).

In one test the target is HDAC1 (Homo sapiens, UniProt Q13547). As to the kind of experiment: HDAC enzymatic assay, HDAC1. It is filed as biochemical. The conditions noted are these: for pIC50: Table 2, thio (SH) vs hydroxamate (CONHOH) MBG analogues, read-out: HDAC isoforms, 1 (IC50); for IC50: fluorogenic tetrapeptide RHKKAc substrate 10 μM, read-out: HDAC isoforms IC50 (nM), 1. As for the experimental part: (§1) Each compound was dissolved in DMSO, and progressively diluted solutions were used for testing. […] Upon its deacetylation, the fluorophore was released given rise to fluorescence emission which was detected by a fluorimeter, and the IC50 values of the compounds were determined by analyzing dose-response inhibition curves.
Sequence of HDAC1 (Q13547 whole entry, canonical isoform): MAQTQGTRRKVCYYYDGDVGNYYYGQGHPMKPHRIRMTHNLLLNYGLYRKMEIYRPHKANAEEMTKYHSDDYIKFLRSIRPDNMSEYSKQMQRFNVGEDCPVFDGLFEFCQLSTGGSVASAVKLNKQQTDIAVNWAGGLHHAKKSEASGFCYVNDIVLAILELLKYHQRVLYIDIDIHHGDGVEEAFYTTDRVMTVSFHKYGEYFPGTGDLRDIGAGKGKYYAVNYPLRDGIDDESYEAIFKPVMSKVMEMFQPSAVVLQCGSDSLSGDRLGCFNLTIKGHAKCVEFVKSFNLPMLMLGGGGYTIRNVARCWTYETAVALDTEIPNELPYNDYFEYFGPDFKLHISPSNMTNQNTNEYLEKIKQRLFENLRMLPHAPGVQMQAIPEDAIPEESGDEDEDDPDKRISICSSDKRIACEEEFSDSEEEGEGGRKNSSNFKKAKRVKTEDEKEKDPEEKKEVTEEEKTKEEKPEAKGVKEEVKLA

Another test addresses HDAC5 (Homo sapiens, UniProt Q9UQL6). As to the kind of experiment: HDAC enzymatic assay, HDAC5. It is filed as biochemical. Particulars: for pIC50: Table 2, thio (SH) vs hydroxamate (CONHOH) MBG analogues, read-out: HDAC isoforms, 5 (IC50); for IC50: fluorogenic tetrapeptide RHKKAc substrate 10 μM, read-out: HDAC isoforms IC50 (nM), 5. As for the experimental part: as §1
A further test deals with T1, HDAC7 (Homo sapiens, UniProt Q8WUI4).
T1 sequence (Q8WUI4 1-952): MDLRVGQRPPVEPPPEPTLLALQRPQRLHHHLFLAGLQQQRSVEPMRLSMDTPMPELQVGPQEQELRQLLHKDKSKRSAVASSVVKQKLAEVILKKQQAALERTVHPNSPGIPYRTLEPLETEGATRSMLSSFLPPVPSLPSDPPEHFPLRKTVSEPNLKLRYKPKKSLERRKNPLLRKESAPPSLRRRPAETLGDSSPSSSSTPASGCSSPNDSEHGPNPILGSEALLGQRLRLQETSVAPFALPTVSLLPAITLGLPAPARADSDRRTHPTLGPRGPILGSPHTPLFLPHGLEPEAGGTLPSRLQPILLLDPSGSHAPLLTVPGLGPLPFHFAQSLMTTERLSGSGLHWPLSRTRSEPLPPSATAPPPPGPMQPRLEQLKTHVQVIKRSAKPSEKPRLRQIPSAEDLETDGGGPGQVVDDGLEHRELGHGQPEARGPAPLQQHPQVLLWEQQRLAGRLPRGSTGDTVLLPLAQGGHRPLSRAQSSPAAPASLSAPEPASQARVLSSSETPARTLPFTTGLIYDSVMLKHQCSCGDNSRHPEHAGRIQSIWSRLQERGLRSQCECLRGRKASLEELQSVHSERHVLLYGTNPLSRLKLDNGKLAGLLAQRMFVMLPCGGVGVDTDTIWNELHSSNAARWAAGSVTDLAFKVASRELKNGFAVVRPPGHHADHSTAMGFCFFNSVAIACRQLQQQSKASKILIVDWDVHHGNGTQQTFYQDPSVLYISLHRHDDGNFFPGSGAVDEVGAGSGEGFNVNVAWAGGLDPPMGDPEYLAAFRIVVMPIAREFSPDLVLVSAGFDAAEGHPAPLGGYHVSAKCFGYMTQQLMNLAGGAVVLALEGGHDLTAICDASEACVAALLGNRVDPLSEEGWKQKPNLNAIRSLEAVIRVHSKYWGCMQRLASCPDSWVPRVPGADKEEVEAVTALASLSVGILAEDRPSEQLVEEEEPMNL
As to the kind of experiment: HDAC enzymatic assay, HDAC7. It is filed as biochemical. Particulars: for pIC50: Table 2, thio (SH) vs hydroxamate (CONHOH) MBG analogues, read-out: HDAC isoforms, 7 (IC50); for IC50: fluorogenic tetrapeptide RHKKAc substrate 10 μM, read-out: HDAC isoforms IC50 (nM), 7. As for the experimental part: as §1

In a further test the target is T2, HDAC8 (Homo sapiens, UniProt Q9BY41).
T2 sequence (Q9BY41 1-377): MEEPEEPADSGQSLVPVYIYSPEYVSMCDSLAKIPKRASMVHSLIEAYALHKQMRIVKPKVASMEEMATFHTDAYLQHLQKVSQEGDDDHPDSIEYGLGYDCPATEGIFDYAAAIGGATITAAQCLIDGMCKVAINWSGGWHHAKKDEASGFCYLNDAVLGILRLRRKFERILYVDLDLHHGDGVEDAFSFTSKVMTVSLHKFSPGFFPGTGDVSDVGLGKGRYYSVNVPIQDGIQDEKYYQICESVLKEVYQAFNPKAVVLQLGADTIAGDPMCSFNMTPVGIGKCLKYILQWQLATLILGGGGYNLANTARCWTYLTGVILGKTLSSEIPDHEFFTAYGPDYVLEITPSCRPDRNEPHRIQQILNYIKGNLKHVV
Briefly: HDAC enzymatic assay, HDAC8. It is filed as biochemical. The conditions noted are these: for pIC50: Table 2, thio (SH) vs hydroxamate (CONHOH) MBG analogues, read-out: HDAC isoforms, 8 (IC50); for IC50: fluorogenic tetrapeptide RHKKAc substrate 10 μM, read-out: HDAC isoforms IC50 (nM), 8. As for the experimental part:
as §1

The target of another test is HDAC9 (Homo sapiens, UniProt Q9UKV0). As to the kind of experiment: HDAC enzymatic assay, HDAC9. Particulars: for pIC50: Table 2, thio (SH) vs hydroxamate (CONHOH) MBG analogues, read-out: HDAC isoforms, 9 (IC50); for IC50: fluorogenic tetrapeptide RHKKAc substrate 10 μM, read-out: HDAC isoforms IC50 (nM), 9. The class given is biochemical. As for the experimental part: as §1
Sequence of HDAC9 (Q9UKV0 whole entry, canonical isoform): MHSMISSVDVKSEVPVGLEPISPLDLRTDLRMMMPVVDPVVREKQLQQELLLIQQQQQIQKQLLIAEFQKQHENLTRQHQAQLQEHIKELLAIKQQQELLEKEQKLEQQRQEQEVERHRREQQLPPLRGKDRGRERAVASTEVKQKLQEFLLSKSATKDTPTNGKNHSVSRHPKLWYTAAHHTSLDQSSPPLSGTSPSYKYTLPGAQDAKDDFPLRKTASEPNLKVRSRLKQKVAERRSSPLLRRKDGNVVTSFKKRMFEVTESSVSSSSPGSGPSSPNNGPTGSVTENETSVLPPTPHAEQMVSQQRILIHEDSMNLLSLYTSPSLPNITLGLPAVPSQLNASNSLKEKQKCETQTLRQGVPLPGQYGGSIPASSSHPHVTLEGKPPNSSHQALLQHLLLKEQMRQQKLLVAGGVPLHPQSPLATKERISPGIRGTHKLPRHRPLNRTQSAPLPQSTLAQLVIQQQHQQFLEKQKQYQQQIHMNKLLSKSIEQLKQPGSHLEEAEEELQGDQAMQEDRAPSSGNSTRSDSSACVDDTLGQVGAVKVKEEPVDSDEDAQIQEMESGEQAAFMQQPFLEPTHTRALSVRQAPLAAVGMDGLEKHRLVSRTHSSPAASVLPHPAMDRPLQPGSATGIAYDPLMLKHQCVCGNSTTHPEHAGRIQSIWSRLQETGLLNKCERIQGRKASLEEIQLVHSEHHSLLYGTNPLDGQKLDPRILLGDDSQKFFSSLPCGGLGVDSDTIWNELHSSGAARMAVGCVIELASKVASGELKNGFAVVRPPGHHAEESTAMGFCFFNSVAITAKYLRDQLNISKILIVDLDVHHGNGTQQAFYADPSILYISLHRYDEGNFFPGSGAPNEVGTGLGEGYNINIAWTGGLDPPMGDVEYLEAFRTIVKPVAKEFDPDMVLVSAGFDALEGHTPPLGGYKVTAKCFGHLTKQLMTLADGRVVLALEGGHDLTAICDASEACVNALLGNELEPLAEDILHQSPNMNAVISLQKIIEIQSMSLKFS

Another test concerns the target T3, HDAC10 (Homo sapiens, UniProt Q969S8).
T3 sequence (Q969S8 1-669): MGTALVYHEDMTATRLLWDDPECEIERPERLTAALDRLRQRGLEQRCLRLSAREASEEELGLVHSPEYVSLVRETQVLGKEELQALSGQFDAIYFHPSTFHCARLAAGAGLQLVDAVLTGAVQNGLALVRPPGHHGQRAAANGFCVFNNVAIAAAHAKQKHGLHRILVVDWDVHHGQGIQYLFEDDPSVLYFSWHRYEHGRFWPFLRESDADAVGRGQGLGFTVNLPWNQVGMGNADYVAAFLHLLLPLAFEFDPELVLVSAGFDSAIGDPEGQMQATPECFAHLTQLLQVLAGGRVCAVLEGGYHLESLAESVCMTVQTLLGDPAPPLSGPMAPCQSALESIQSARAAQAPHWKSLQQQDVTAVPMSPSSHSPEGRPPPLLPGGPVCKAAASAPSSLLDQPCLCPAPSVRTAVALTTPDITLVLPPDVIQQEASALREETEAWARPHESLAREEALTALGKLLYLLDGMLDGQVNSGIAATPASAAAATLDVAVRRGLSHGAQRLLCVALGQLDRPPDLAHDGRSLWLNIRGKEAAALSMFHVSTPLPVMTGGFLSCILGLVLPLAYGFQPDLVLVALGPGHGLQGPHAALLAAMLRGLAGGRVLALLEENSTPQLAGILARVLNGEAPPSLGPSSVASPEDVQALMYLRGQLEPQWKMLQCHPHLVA
As to the kind of experiment: HDAC enzymatic assay, HDAC10. The class given is biochemical. The conditions noted are these: for pIC50: Table 2, thio (SH) vs hydroxamate (CONHOH) MBG analogues, read-out: HDAC isoforms, 10 (IC50); for IC50: fluorogenic tetrapeptide RHKKAc substrate 10 μM, read-out: HDAC isoforms IC50 (nM), 10. The procedure:
as §1

For test [1], the system named is NCI-H460 non-small cell lung carcinoma cells. Briefly: Cytotoxicity, sulphorodamine B, H460. Particulars: Homo sapiens, NCI-H460, read-out: H460 cell line IC50 (μM).
Description: (§2) They were allowed to attach and recover for at least 24 h.
(§3) The plates were incubated for 24 h at 37° C., after which they were washed 3 times by removal of the supernatant and addition of PBS. The plates were then incubated for further 48 h at 37° C. 200 μl PBS and 50 μl of cold 80% TCA were added and the plates were incubated on ice for at least 1 h. TCA was removed and the plates were washed 3 times by immersion in distilled-water. They were then dried on paper at 40° C. for 5 min. 200 μl of 0.4% sulphorodamine B in 1% acetic acid were added. The plates were incubated at room temperature for further 30 min. Sulphorodamine B was removed, and the plates were washed 3 times by immersion in 1% acetic acid and were dried on paper and at 40° C. for 5 min. Then 200 μl Tris 10 mM were added. The plates were kept under magnetic stirring for 20 min. Cell survival was determined by means of optical density by a Multiskan spectrofluorimeter at 540 nm. The amount of cells killed was calculated as the percentage decrease in sulphorodamine B binding compared to control cultures.
Test [2] has as its system HCT116 colon cancer cells. As to the kind of experiment: Cytotoxicity, sulphorodamine B, HCT116. The conditions noted are these: Homo sapiens, HCT-116, read-out: HCT116 cell line IC50 (μM).
Description: as §2, §3

pIC50: −log10 of the molar value. Like-named read-outs stand apart in the source and are kept apart here.

Sequence of HDAC5 (Q9UQL6 whole entry, canonical isoform): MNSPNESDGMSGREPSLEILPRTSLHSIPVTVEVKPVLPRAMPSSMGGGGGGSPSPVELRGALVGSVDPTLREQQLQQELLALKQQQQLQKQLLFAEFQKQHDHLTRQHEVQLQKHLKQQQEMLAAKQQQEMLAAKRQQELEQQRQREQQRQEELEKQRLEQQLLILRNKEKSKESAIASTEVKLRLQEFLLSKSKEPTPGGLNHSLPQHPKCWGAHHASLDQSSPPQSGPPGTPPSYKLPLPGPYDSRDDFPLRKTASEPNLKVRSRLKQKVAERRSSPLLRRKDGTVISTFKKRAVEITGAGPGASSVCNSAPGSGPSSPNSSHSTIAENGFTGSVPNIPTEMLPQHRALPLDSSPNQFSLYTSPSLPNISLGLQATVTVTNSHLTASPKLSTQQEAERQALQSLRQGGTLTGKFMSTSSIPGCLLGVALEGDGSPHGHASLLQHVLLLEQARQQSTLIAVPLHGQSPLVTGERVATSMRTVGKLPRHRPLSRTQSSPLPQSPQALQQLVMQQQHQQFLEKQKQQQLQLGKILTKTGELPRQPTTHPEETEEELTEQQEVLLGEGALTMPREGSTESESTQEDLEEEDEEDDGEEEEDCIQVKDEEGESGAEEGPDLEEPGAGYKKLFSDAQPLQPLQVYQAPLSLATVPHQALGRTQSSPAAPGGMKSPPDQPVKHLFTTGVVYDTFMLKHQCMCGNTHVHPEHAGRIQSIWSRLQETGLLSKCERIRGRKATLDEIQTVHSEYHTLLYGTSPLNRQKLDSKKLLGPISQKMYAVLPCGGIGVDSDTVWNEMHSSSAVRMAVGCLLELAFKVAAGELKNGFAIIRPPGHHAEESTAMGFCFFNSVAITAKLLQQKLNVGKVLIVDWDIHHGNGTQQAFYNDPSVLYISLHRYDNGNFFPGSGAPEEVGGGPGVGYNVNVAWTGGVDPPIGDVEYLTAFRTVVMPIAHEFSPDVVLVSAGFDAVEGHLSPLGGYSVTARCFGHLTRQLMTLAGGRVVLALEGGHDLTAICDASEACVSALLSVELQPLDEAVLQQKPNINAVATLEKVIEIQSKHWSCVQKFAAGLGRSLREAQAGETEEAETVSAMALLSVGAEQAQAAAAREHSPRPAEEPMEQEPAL

With `CC(=O)SCCCCC[C@H](NC(=O)[C@H]1CCC(=O)N1)C(=O)Nc1ccccc1` [Example 21, Thioacetic acid S—{(S)-6-[((R)-5-oxo-pyrrolidine-2-carbonyl)-amino]-6-phenylcarbamoyl-hexyl}ester], the pIC50 at HDAC1 is more than 7.30; on HDAC5, more than 7.30; at HDAC7, more than 7.30; at HDAC8, 6.30 to 7.00; on HDAC9, more than 7.30; on HDAC10, more than 7.30. The IC50 in test [1] is less than 0.5 µM.
As for `O=C1NC[C@@H](c2ccccc2)[C@@H]1C(=O)N[C@@H](CCCCCS)C(=O)Nc1ccccc1` [Example 31, (3S,4R)-2-Oxo-4-phenyl-pyrrolidine-3-carboxylic acid ((S)-6-mercapto-1-phenylcarbamoyl-hexyl)-amide], the pIC50 at HDAC1, on HDAC5, at HDAC7, at HDAC8, on HDAC9 and at HDAC10 was more than 7.30 throughout. Also, the IC50 on HDAC1, at HDAC5, at HDAC7, on HDAC8, on HDAC9 and on HDAC10 was less than 50 nM in each case. Further, the IC50 in test [2] fell in the range of 1 to 10 µM.
For `O=C1CC[C@H](C(=O)N[C@@H](CCCCCS)C(=O)Nc2ccccc2)N1` [Example 33, (R)-5-Oxo-pyrrolidine-2-carboxylic acid ((S)-6-mercapto-1-phenylcarbamoyl-hexyl)amide], the pIC50 on HDAC1 is more than 7.30; at HDAC5 it was more than 7.30; at HDAC7 it was more than 7.30; on HDAC8 it was 6.30 to 7.00; on HDAC9 it was more than 7.30; at HDAC10, more than 7.30. The IC50 at HDAC1 was less than 50 nM; on HDAC5, less than 50 nM; on HDAC7, less than 50 nM; on HDAC8, 100 to 500 nM; on HDAC9, less than 50 nM; at HDAC10, less than 50 nM. Moreover, the IC50 in test [2] is 1 to 10 µM.
On to `Cc1cccc(NC(=O)[C@H](CCCCCS)NC(=O)[C@@H]2CCCC(=O)N2)c1` [Example 38, (S)-6-Oxo-piperidine-2-carboxylic acid ((S)-6-mercapto-1-m-tolylcarbamoyl-hexyl)amide], for which the IC50 is less than 50 nM at HDAC1; less than 50 nM on HDAC5; less than 50 nM at HDAC7; 100 to 500 nM on HDAC8; less than 50 nM on HDAC9; less than 50 nM at HDAC10.
For `Cc1ccc(NC(=O)[C@H](CCCCCS)NC(=O)[C@@H]2CCCC(=O)N2)cc1` [Example 39, (S)-6-Oxo-piperidine-2-carboxylic acid ((S)-6-mercapto-1-p-tolylcarbamoyl-hexyl)amide], the IC50 on HDAC1 is less than 50 nM; at HDAC5 it was less than 50 nM; on HDAC7, less than 50 nM; on HDAC8, 100 to 500 nM; on HDAC9, less than 50 nM; on HDAC10, less than 50 nM.
`CN1C(=O)CCC[C@H]1C(=O)N[C@@H](CCCCCS)C(=O)Nc1ccccc1` [Example 40, (S)-1-Methyl-6-oxo-piperidine-2-carboxylic acid ((S)-6-mercapto-1-phenylcarbamoyl-hexyl)-amide]: the concentration for half-maximal inhibition (IC50) is less than 50 nM at HDAC1; less than 50 nM on HDAC5; less than 50 nM at HDAC7; 100 to 500 nM on HDAC8; less than 50 nM at HDAC9; less than 50 nM on HDAC10.

The term pIC50 denotes the IC50 on a negative log10 scale, so that one unit is a factor of ten. For orientation: IC50 means the midpoint of a concentration-inhibition curve.
